Seven molecules from patent US20030100477A1, “Medicinal compositions for suppressing beta-amyloid production” (priority 2002, published 2003) can be followed below.

Test [1] deals with T1, Cdk5 and p25 (Homo sapiens, UniProt Q00535).
T1 construct: Complete length of the human Cdk5 gene was amplified from total RNA; made in house; host or cells: Sf9 insect cells (baculovirus)
As to the kind of experiment: Cdk5 kinase inhibitory activity, SPA method with biotinylated histone and 33P-ATP. The format is biochemical. Particulars: recombinant human Cdk5/p25 1:1, SPA method. The protocol:
The total RNA was obtained by adding 1 ml of ISOGEN reagent (Nippon Gene) to 1×10^6 cells, mixing the resulting lysate with ⅕ volume of chloroform, centrifuging the mixture at 15,000 rpm for 10 minutes, mixing the resulting supernatant with ½ volume of 2-propanol and further centrifuging the mixture at 15,000 rpm for 20 minutes. The thus obtained RNA was dissolved in water and, after measurement of its concentration, subjected to PCR reaction (Titans one tube RT-PCR kit (Boehringer Mannheim)). […] Each of the genes was introduced into a Bacmid preparation vector pFASTBac-Hta (Gibco BRL) which had been designed such that His-tag is added to N-terminus, making use of the HindIII and BamHI sites designed in the primers. Each of the genes introduced into pFASTBac was introduced into DH10Bac to carry out recombination in E. coli, thereby obtaining respective recombinant Bacmids. The thus obtained Bacmid was introduced into Sf9 cells using cellfectin reagent (Gibco BRL) to obtain baculovirus. […] Purification of the recombinant proteins was carried out making use of the 6× His tag added to the N-terminus.
After though washing with the buffer A, this was washed with a buffer B (20 mM Tris-HCl, 1 M KCl, 10 mM 2-ME, 10% glycerol). Finally, fractions eluted with a buffer C (20 mM Tris-HCl, 100 mM KCl, 100 mM imidazole, 10 mM 2-ME, 10% glycerol) were recovered, dialyzed against a sample solution (50 mM HEPES-KOH, 10 mM MgCl2, 2.5 mM EGTA, 0.1 mM PMSF) and used as a purified preparation.
A 1:1 mixture of the purified Cdk5 protein and purified p25 obtained above was used as the enzyme source at the time of kinase activity measurement. Histone HI (Sigma) was biotinylated and used as the substrate. Biotinylated histone was prepared by allowing histone to react with 10 equivalents of biotin (Ez-link Sulfo-NHS-LC-Biotin, Pierce) as molar ratio in the presence of 50 mM sodium bicarbonate at room temperature for 6 hours. Free biotin was removed by carrying out dialysis using TBS, and the resulting solution was used as the stock solution. Measurement of kinase activity was carried out in accordance with the SPA method (Amersham). […] This was allowed to stand at room temperature for 15 minutes and centrifuged (1,700 rpm, 2 min), and then amount of the isotope incorporated in the substrate was measured by Topcount […].

Test [2] has as its system APP(Thr668) phosphorylation. As to the kind of experiment: APP(Thr668) phosphorylation by western blotting in APP695 adenovirus-infected hippocampus primary culture nerve cells. Particulars: for APP phosphorylation suppressing action / concentration at which APP phosphorylation suppressing action was found: rat hippocampus primary culture nerve cells, human APP695 adenovirus, 1 day of treatment; for expressed amount of total APP detected with anti-APP antibody 22C11: same cells and treatment, Alsterpaullone 10 μM, Roscovitine 50 μM. The format is cell-based, rat. The protocol: The APP gene-containing recombinant adenovirus vector was converted into linear strand by PacI treatment and introduced into HEK293 cells by the Lipofectamine method (LIFE TECHNOLOGIES), and 3 to 5 days thereafter when cells were pealed off from the plate, all of the cells were recovered. The recombinant adenovirus was obtained from the supernatant by repeating freezing-thawing step of the cells. The thus obtained recombinant adenovirus was prepared in a large amount by repeating infection of HEK293 cells and then concentrated and purified by the CsCl method and used in the test.
The thus obtained PVDF membrane was soaked in Block Ace (Daiichi Pure Chemicals) at 4° C. overnight to carry out blocking. […] The anti-serum obtained by the immunization was used by subjecting to adsorption treatment using an immunogen peptide before introduction of phosphate group and then purifying by affinity chromatography using the phosphate group-introduced antigen peptide. Also, an anti-APP monoclonal antibody 22C11 (Roche Molecular Biochemicals) was used in the determination of total APP amount (combined APP amount of phosphorylated state of APP and non-phosphorylated state of APP). […] After completion of the reaction, washing with PBS-T at room temperature for 10 minutes was repeated four times and then this was subjected to the reaction with a secondary antibody. As the secondary antibody, 20,000 times diluted HRP-labeled anti-rabbit and anti-mouse IgG antibodies (Amersham Pharmacia Biotech) were used.
For orientation: A western blot detects proteins with antibodies after separation by electrophoresis.

The test system of test [3] is Aβ1-40 production. Nature of the test: Aβ1-40 production, sandwich ELISA of culture supernatant of APP695 adenovirus-infected hippocampus primary culture nerve cells. A general note: In an ELISA, binding on a coated surface is turned into a signal by an enzyme label.
Protocol: The fetus was sterilized with ethanol for disinfection in a clean bench, the total brain was extracted and recovered in a dish containing a serum-free medium (SUMILON, Sumitomo Bakelite), and the hippocampus was extracted using a precision pincette under a stereoscopic microscope. The hippocampus was transferred into a 50 ml tube, tissues were precipitated by standing to discard the supernatant by aspirating and a cell dispersing solution (PBS containing 1% papain, 150 U/ml DNase I, 0.02% L-cysteine, 0.02% BSA and 0.5% glucose) was added thereto, and the mixture was incubated at 37° C. for 15 minutes and then centrifuged (1,000 rpm, 4° C., 5 min). The supernatant was removed by aspiration, 10 ml of the serum-free medium was added to the sediment, pipette treatment was carried out several times, and then cell masses were removed using a filter to obtain a cell suspension. The number of cells was counted using trypan blue, and 1.5×10^5 of the cells were inoculated into a poly-L-lysine-coated 48 well culture plate. In order to effect sufficient differentiation, they were cultured at 37° C. for 10 days in a CO2 incubator and then used in the test.
Infection with adenovirus was carried out on the 10th day of the culturing. A virus suspension of 1.5×10^8 particles was suitably diluted and added to a medium to an MOI (multiplicity of infection) value of 1,000 based on 1.5×10^5 cells. A sample was recovered on the 4th day of the infection.
Culture supernatants recovered 24 hours after the addition of compounds to be tested were used as the samples for Aβ production measurement. Amount of Aβ in each supernatant was determined by sandwich ELISA. Firstly, an anti-Aβ monoclonal antibody 6E10 (Wako) diluted to 10 μg/ml with 100 mM phosphate buffer was dispensed in 50 μl/well portions into a plate for ELISA (Maxisorp, Nunc) and allowed to stand overnight at 4° C. to effect adhesion of the 6E10 antibody to the plate. The antibody was recovered on the next day, and 200 μl of Block Ace was added to each well to carry out blocking at 4° C. overnight or more. […] The Aβ for calibration curve preparation was prepared in the following manner. […] A 10 μl portion of the stock solution was transferred into a tube, HFIP was evaporated using a vacuum concentrator and then the residue was again dissolved in 10 μl of DMSO to an Aβ concentration of 1 mg/ml. Serial dilutions of the solution for Aβ calibration curve measurement were prepared within the range of from 0.2 to 10 ng/ml. The plate after the reaction with a sample or Aβ for calibration curve preparation was washed 4 times with the plate washer and then allowed to react with primary antibodies. Polyclonal antibodies R163 (Aβ1-40 specific antibody) and R165 Aβ1-42 specific antibody), which specifically recognize C-terminus of Aβ, were used as the primary antibodies. […] Each antibody was diluted 1,000 times with TBS-T containing 25% Block Ace, dispensed in 60 μl/well portions into the plate and then allowed to undergo the reaction at room temperature for 2 hours. After the reaction, the plate was washed 4 times using the plate washer and then the reaction with a secondary antibody was carried out. An HRP-labeled anti-rabbit IgG antibody was used as the secondary antibody, diluted 8,000 times with TBS-T containing 25% Block Ace and dispensed in 60 μl/well portions, and then the reaction was carried out at room temperature for 2 hours. After completion of the reaction, the plate was washed 4 times using the plate washer and then chemiluminescence by a POD chemiluminescence reagent (Boehringer Mannheim) was measured by ML3000 Plate Reader (Dynatech Laboratories).
Test [4] deals with Aβ1-42 production. Nature of the test: Aβ1-42 production, sandwich ELISA of culture supernatant of APP695 adenovirus-infected hippocampus primary culture nerve cells. The format is cell-based, rat. The following applies: culture supernatant after 1 day of treatment, control DMSO (FIG. 4).
Setting [5] is: culture supernatant after 1 day of treatment, control DMSO (FIG. 3, FIG. 5).

T1 sequence (Q00535 2-292): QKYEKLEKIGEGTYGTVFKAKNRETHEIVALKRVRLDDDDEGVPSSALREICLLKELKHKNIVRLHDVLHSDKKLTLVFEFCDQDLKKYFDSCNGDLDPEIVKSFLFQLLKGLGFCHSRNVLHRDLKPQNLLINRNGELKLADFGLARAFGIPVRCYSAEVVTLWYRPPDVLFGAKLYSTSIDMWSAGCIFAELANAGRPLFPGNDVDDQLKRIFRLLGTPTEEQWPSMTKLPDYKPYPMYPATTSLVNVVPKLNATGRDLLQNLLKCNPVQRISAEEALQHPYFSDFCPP
T1 sequence (Q15078 99-307 partner limits assumed): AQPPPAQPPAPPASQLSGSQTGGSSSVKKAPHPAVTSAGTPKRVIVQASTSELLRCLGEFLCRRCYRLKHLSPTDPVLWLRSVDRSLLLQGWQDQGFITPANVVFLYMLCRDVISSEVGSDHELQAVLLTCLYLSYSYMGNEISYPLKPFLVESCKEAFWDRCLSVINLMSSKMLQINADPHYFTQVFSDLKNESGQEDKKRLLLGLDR

Turning to `CCn1cnc2c(Nc3cccc(OC)c3)nc(NC3CCC(N)CC3)nc21` (stereo not drawn) [B], the Cdk5 inhibitory activity entry in test [1] is listed as “verified the Cdk5 inhibitory activity”. Also, the “APP phosphorylation suppressing action” value in test [2] is on record as “found”. Besides, in test [3] (setting [5]), the Aβ1-40 production entry is given as “confirmed”.

As for `CCn1cnc2c(Nc3cccc(OC)c3)nc(N[C@H]3CC[C@H](O)CC3)nc21` [C], in test [1], the Cdk5 inhibitory activity entry is recorded as “verified the Cdk5 inhibitory activity”. For the same molecule, the “APP phosphorylation suppressing action” value in test [2] is “found”. Further, in test [3] (setting [5]), the Aβ1-40 production entry is “confirmed”.

For the molecule `O=C1Cc2c([nH]c3ccc([N+](=O)[O-])cc23)-c2ccccc2N1` [Alsterpaullone, reference compound], the Cdk5 inhibitory activity result in test [1] is “verified the Cdk5 inhibitory activity”. The Aβ1-42 production entry in test [4] is reported as “suppressed”. For the same molecule, in test [2], the “concentration at which APP phosphorylation suppressing action was found” value was 10 µM and the “expressed amount of total APP detected with anti-APP antibody 22C11” value is listed as “no changes”. Also, the Aβ1-40 production entry in test [3] (setting [5]) is listed as “suppressed”.

As to “Cdk5 D144N: dominant negative mutant of Cdk5 (144th aspartic acid converted into asparagine), expressed from adenovirus vector”, the Aβ1-40 production result in test [3] (cells on 7th day co-infected with APP695 adenovirus and Cdk5 D144N adenovirus, supernatant 2 days later, control GFP adenovirus) is reported as “suppressed”.

With `CCn1cnc2c(Nc3cccc(OC)c3)nc(N[C@@H]3CCCC[C@@H]3N)nc21` [A], in test [1], the Cdk5 inhibitory activity result is “verified the Cdk5 inhibitory activity”. The “APP phosphorylation suppressing action” value in test [2] is “found”. For the same molecule, the Aβ1-40 production result in test [3] (setting [5]) is on record as “confirmed”.

As for `CC[C@H](CO)Nc1nc(NCc2ccccc2)c2ncn(C(C)C)c2n1` [Roscovitine, reference compound], in test [2], the “concentration at which APP phosphorylation suppressing action was found” value was found to be 50 µM and the “expressed amount of total APP detected with anti-APP antibody 22C11” value was “no changes”. Besides, the Aβ1-40 production result in test [3] (setting [5]) is on record as “confirmed”.

As for `N[C@H]1CC[C@H](Nc2nc(Nc3cccc(Cl)c3)c3ncn(C4CCCC4)c3n2)CC1` [D], in test [1], the Cdk5 inhibitory activity entry is given as “verified the Cdk5 inhibitory activity”. For the same molecule, the “APP phosphorylation suppressing action” value in test [2] was “found”. The Aβ1-40 production result in test [3] (setting [5]) is recorded as “confirmed”.
